{"source": "patent US20070082872A1", "about": "“Indole-containing compounds with anti-tubulin and vascular targeting activity” (priority 1999, published 2007)", "key": {"[1]": {"tested_on": "SF-295 (CNS)", "test": "In vitro growth inhibition (SRB), SF-295", "assay_type": "cell-based, human", "conditions": "48 hours incubation", "description": "(§1) Newly prepared compounds were evaluated for cytotoxic activity against a variety of cell lines derived from human tumors using an assay system similar to the National Cancer Institute procedure previously described (Monks et al, J. Natl. Cancer Inst., 1991). Briefly, the cell suspensions, diluted according to the particular cell type and the expected target cell density (5,000-40,000 cells per well based on cell growth characteristics), were added by pipet (100 μl) to 96-well microtiter plates. Inoculates were allowed a preincubation time of 24-28 hours at 37° C. for stabilization. Incubation with the inhibitor compounds lasted for 48 hours in 5% CO2 atmosphere and 100% humidity. Determination of cell growth was performed by in situ fixation of cells, followed by staining with a protein-binding dye sulforhodamine B (SRB), which binds to the basic amino acids of cellular macromolecules. The solubilized stain was measured spectrophotometrically.\n(§2) Several compounds were evaluated for cytotoxic activity against […] P388 leukemia cell lines. […] These and additional compounds were evaluated in terms of growth inhibitory activity against several other […] cancer cell lines including: central nervous system (“CNS”, SF-295), pancreas (BXPC-3), non-small cell lung cancer (“lung-NSC”, NCI-H460), breast (MCF-7), colon (KM20L2), ovarian (OVCAR-3), and prostate (DU-145). […]"}, "[2]": {"tested_on": "BXPC-3 (pancreas)", "test": "In vitro growth inhibition (SRB), BXPC-3", "assay_type": "cell-based, human", "conditions": "48 hours incubation", "description": "as §1, §2"}, "[3]": {"tested_on": "NCI-H460 (lung-NSC)", "test": "In vitro growth inhibition (SRB), NCI-H460", "assay_type": "cell-based, human", "conditions": "48 hours incubation", "description": "as §1, §2"}, "[4]": {"tested_on": "MCF-7 (breast)", "test": "In vitro growth inhibition (SRB), MCF-7", "assay_type": "cell-based, human", "conditions": "48 hours incubation", "description": "as §1, §2"}, "[5]": {"tested_on": "KM20L2 (colon)", "test": "In vitro growth inhibition (SRB), KM20L2", "assay_type": "cell-based, human", "conditions": "48 hours incubation", "description": "as §1, §2"}, "[6]": {"tested_on": "DU-145 (prostate)", "test": "In vitro growth inhibition (SRB), DU-145", "assay_type": "cell-based, human", "conditions": "48 hours incubation", "description": "as §1, §2"}, "[7]": {"tested_on": "MHEC-5T hemangioendothelioma tumor", "test": "Inhibition of tumor blood flow, Fluorescent Bead Assay", "assay_type": "in vivo, mice", "conditions": "for % VAPM (vessel area per tumor tissue area as a percentage of the control): single i.p. injection, 24 hours post-treatment", "description": "The antivascular effects of the indole phosphate prodrug Oxi-8007, was assessed in tumor-bearing mice using a Fluorescent Bead Assay. A MHEC-5T hemangioendothelioma tumor model was established by subcutaneous injection of 0.5×10^6 cultured transformed cell murine myocardial vascular endothelial cell line (“MHEC5-T”) cells into the right flank of Fox Chase CB-17 Severe Combined Immunodeficient (“SCID”) mice. When transplanted tumors reached a size of 500 mm^3 (a size without development of necrosis), the mice received a single intraperitoneal (i.p.) injection of saline control or compound at doses ranging from 3.2 to 25 mg/kg. At 24 hours post-treatment, mice were injected intravenously with 0.25 ml of diluted FluoSphere beads (1:6 in physiological saline) in the tail vein, sacrificed after 3 minutes, and tumor was excised for cryosectioning. Tumor cryosections at a thickness of 8 um were directly examined using quantitative fluorescent microscopy. Blood vessels were indicated by blue fluorescence from injected beads. For quantification, image analysis of 3 sections from three tumors treated in each group were examined and vascular shutdown was expressed as vessel area (mm^2) per tumor tissue area (mm^2) as a percentage of the control (“%VAPM”). The results as shown in Table 4 indicate a clear dose-dependent effect of the agent on tumor blood flow as indicated by the reduction in blood vessel area at 24 hours following administration of Oxi8007. Administration of a dose of 100 mg/kg of Oxi-8007 or higher was particularly effective, causing a >98% reduction in tumor vessel volume relative to the control. A time-course of the effect of OX08007 on tumor blood flow is illustrated in FIG. 14.\nAdditional compounds of the present invention were tested for antivascular effects at two dosages (100 mg/kg and 10 mg/kg) using the same Fluorescent Bead Assay as in the previous experiment."}, "[8]": {"tested_on": "MDA-MB-231 cells", "test": "Tumor growth control in vivo, MDA-MB-231 human breast adenocarcinoma model", "conditions": "SCID mice, 25, 50 or 100 mg/kg daily i.p. for 5 consecutive days; effective dose printed as X mg/kg", "description": "The antitumor activity of indole phosphate prodrug, Oxi-8007, was assessed in tumor-bearing mice by measuring its effects on tumor volume. A human breast adenocarcinoma model was established by subcutaneous injection of cultured MDA-MB-231 cells in Fox Chase CB-17 SCID mice. When the average tumor size reached 50-100 mm^3, mice were randomly divided into several groups (n=10) with no significant difference in body weight and tumor size. Mice were administered Oxi-8007 in saline carrier at doses of 25, 50 or 100 mg/kg by daily intraperitoneal (i.p.) injection for 5 consecutive days (Q1×5). Saline carrier only was used as the control treatment. On Day 3, 7, 10, 13, 17 and 23, tumors were excised from animals in each treatment group (n=2) and measured by width and length. Tumor volume was calculated according to the following formula: Length×Width^2×0.4. The dosage effects of Oxi-com 197 is illustrated in FIG. 15."}}, "data": [{"molecule": "COc1ccc2c(C(=O)c3cc(OC)c(OC)c(OC)c3)c(-c3ccc(OC)c(OP(=O)([O-])[O-])c3)[nH]c2c1.[Na+].[Na+]", "note": "[Oxi-8007, 2-(3′-Disodiumphosphate-4′-methoxyphenyl)-3-(3″,4″,5″-trimethoxybenzoyl)-6-methoxyindole]", "values": [{"measurement": "GI50 for Cell Line SF-295", "setting": "[1]", "value": 5.5, "unit": "ng/mL"}, {"measurement": "GI50 for Cell Line BXPC-3", "setting": "[2]", "value": 46, "unit": "ng/mL"}, {"measurement": "GI50 for Cell Line NCI-H460", "setting": "[3]", "value": 2.7, "unit": "ng/mL"}, {"measurement": "GI50 for Cell Line MCF-7", "setting": "[4]", "value": 2.3, "unit": "ng/mL"}, {"measurement": "GI50 for Cell Line KM20L2", "setting": "[5]", "value": 4.3, "unit": "ng/mL"}, {"measurement": "GI50 for Cell Line DU-145", "setting": "[6]", "value": "<1", "unit": "ng/mL"}, {"measurement": "% VAPM (vessel area per tumor tissue area as a percentage of the control)", "setting": "[7]; 50 mg/kg", "value": 52, "unit": "%"}, {"measurement": "% VAPM (vessel area per tumor tissue area as a percentage of the control)", "setting": "[7]; 100 mg/kg", "value": 2, "unit": "%"}, {"measurement": "% VAPM (vessel area per tumor tissue area as a percentage of the control)", "setting": "[7]; 200 mg/kg", "value": 1, "unit": "%"}, {"measurement": "reduction in tumor vessel volume relative to the control", "setting": "[7]; dose of 100 mg/kg or higher, 24 hours", "value": "> 98", "unit": "%"}, {"measurement": "tumor growth (tumor volume) relative to control treatment", "setting": "[8]", "value": "significantly inhibited tumor growth"}]}]}
